Our source for the Ki and EC50 values is patent US9321764B2, “Dihydro-pyrrolopyridinone inhibitors” (AbbVie Inc., priority 2013, dated 2016).

The target of one test is T1, BRD4 (BDII_E352-M457) (Homo sapiens, UniProt O60885).
T1 construct: proliferation; Protocol; made in house
Put plainly: TR-FRET bromodomain binding assay, second bromodomain of BRD4. As to conditions: His-tagged BD2, 30 nM Alexa647 probe; TR-FRET protocol A-E given per row. A digest of the protocol:
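His-tagged BRD4 BD2 ([…]) competed against an Alexa647-labelled BET-inhibitor probe in TR-FRET. Buffer was 20 mM sodium phosphate pH 6.0, 50 mM NaCl, 1 mM EDTA, 0.01% Triton X-100, 1 mM DTT, with method D DMSO series of 2.5 mM–800 nM (stock range). IC50 from 4-parameter fit, Ki from probe Kd and concentration.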

In test [1] the test system is breast cancer cell line MX-1. Put plainly: MX-1 cell line proliferation assay. The test is classed as cell-based. To be noted: Homo sapiens, MX1, 72 h, MX-1 cells, 3-day proliferation assay, Cell Titer Glo; read-out: Cellular proliferation EC50. As for the experimental part:
The impact of compounds of the Examples on cancer cell proliferation was determined using the breast cancer cell line MX-1 (ATCC) in a 3-day proliferation assay and the data are reported in Table 1. MX-1 cells were maintained in RPMI 1640 medium (Sigma) supplemented with 10% FBS at 37° C. and an atmosphere of 5% CO2. For compound testing, MX-1 cells were plated in 96-well black bottom plates at a density of 5000 cells/well in 90 μL of culture media and incubated at 37° overnight to allow cell adhesion and spreading. Compound dilution series were prepared in DMSO via a 3-fold serial dilution from 3 mM to 0.1 μM. The DMSO dilution series were then diluted 1:100 in phosphate buffered saline, and 10 μL of the resulted solution were added to the appropriate wells of the MX-1 cell plate. The final compound concentrations in the wells were 3, 1, 0.3, 0.1, 0.03, 0.01, 0.003, 0.001, 0.0003 and 0.0001 μM.
Luminescence readings from the Cell Titer Glo assay were normalized to the DMSO treated cells and analyzed using the GraphPad Prism software with sigmoidal curve fitting to obtain EC50s. The minimum significant ratio (MSR) was determined to evaluate assay reproducibility (Eastwood et al., (2006) J Biomol Screen, 11: 253-261).

For a further test, the target named is T2, BRD4 (BDI_K57-E168) (Homo sapiens, UniProt O60885).
T2 construct: BD1: amino acids K57-E168; made in house
Description: TR-FRET bromodomain binding assay, first bromodomain of BRD4. As to conditions: His-tagged BD1, 100 nM Alexa647 probe; TR-FRET protocol A-E given per row. A digest of the protocol: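 His-tagged BRD4 BD1 (K57-E168), 8 nM, with 1 nM Eu-anti-His antibody and 100 nM Alexa647-labelled BET-inhibitor probe in pH 6.0 phosphate buffer, 2% DMSO. TR-FRET read after 1 h at room temperature. IC50 from 4-parameter fit, converted to Ki using probe Kd and concentration.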

For `Cn1cc(-c2cc(S(C)(=O)=O)ccc2OC2CCOC2)c2cc[nH]c(=O)c21` (stereo not drawn) [Example 22, 1-methyl-3-[5-(methylsulfonyl)-2-(tetrahydrofuran-3-yloxy)phenyl]-1,6-dihydro-7H-pyrrolo[2,3-c]pyridin-7-one], the figures for the Ki at BRD4 (BDII_E352-M457) and on BRD4 (BDI_K57-E168) were 0.12 µM and 0.015 µM, respectively. Besides, the EC50 in test [1] was determined as 0.384 µM.

For the compound `Cn1cc(-c2cc(S(C)(=O)=O)ccc2OCC2CCOC2)c2cc[nH]c(=O)c21` (stereo not drawn) [Example 23, 1-methyl-3-[5-(methylsulfonyl)-2-(tetrahydrofuran-3-ylmethoxy)phenyl]-1,6-dihydro-7H-pyrrolo[2,3-c]pyridin-7-one], the Ki is 0.117 µM at BRD4 (BDII_E352-M457) and 0.013 µM on BRD4 (BDI_K57-E168). For the same compound, the EC50 in test [1] stood at 0.256 µM.

On to `Cn1cc(-c2cc(S(C)(=O)=O)ccc2OC2CCOCC2)c2cc[nH]c(=O)c21` [Example 24, 1-methyl-3-[5-(methylsulfonyl)-2-(tetrahydro-2H-pyran-4-yloxy)phenyl]-1,6-dihydro-7H-pyrrolo[2,3-c]pyridin-7-one], for which the Ki was 0.089 µM at BRD4 (BDII_E352-M457) and 0.017 µM on BRD4 (BDI_K57-E168). Moreover, in test [1], the EC50 amounted to 0.231 µM.

With `Cn1cc(-c2cc(S(C)(=O)=O)ccc2OC2CCCOC2)c2cc[nH]c(=O)c21` (stereo not drawn) [Example 26, 1-methyl-3-[5-(methylsulfonyl)-2-(tetrahydro-2H-pyran-3-yloxy)phenyl]-1,6-dihydro-7H-pyrrolo[2,3-c]pyridin-7-one], the Ki on BRD4 (BDII_E352-M457) amounted to 0.06 µM; on BRD4 (BDI_K57-E168) it was 0.007 µM. Moreover, in test [1], the EC50 was 0.123 µM.

Consider `Cn1cc(-c2cc(S(C)(=O)=O)ccc2OCC(C)(C)C)c2cc[nH]c(=O)c21` [Example 27, 3-[2-(2,2-dimethylpropoxy)-5-(methylsulfonyl)phenyl]-1-methyl-1,6-dihydro-7H-pyrrolo[2,3-c]pyridin-7-one], for which the Ki at BRD4 (BDII_E352-M457) was 0.032 µM; at BRD4 (BDI_K57-E168), 0.008 µM. For the same compound, in test [1], the EC50 worked out at 0.176 µM.

Regarding `Cn1cc(-c2cc(S(C)(=O)=O)ccc2OCC2CCC2)c2cc[nH]c(=O)c21` [Example 28, 3-[2-(cyclobutylmethoxy)-5-(methylsulfonyl)phenyl]-1-methyl-1,6-dihydro-7H-pyrrolo[2,3-c]pyridin-7-one], the Ki was 0.053 µM at BRD4 (BDII_E352-M457) and 0.0093 µM at BRD4 (BDI_K57-E168). Moreover, the EC50 in test [1] worked out at 0.129 µM.

Consider `Cn1cc(-c2cc(S(C)(=O)=O)ccc2OCC2(C)CC2)c2cc[nH]c(=O)c21` [Example 29, 1-methyl-3-{2-[(1-methylcyclopropyl)methoxy]-5-(methylsulfonyl)phenyl}-1,6-dihydro-7H-pyrrolo[2,3-c]pyridin-7-one], for which the inhibitory constant (Ki) at BRD4 (BDII_E352-M457) is 0.089 µM; on BRD4 (BDI_K57-E168) it was 0.012 µM. Also, the EC50 in test [1] was determined as 0.191 µM.

Regarding `Cn1cc(-c2cc(S(C)(=O)=O)ccc2OCC2COC2)c2cc[nH]c(=O)c21` [Example 30, 1-methyl-3-[5-(methylsulfonyl)-2-(oxetan-3-ylmethoxy)phenyl]-1,6-dihydro-7H-pyrrolo[2,3-c]pyridin-7-one], the Ki at BRD4 (BDII_E352-M457) is 0.312 µM; on BRD4 (BDI_K57-E168) it was 0.045 µM. For the same compound, the EC50 in test [1] is above 3 µM.

As for `Cn1cc(-c2cc(S(C)(=O)=O)ccc2OCC2CCOCC2)c2cc[nH]c(=O)c21` [Example 31, 1-methyl-3-[5-(methylsulfonyl)-2-(tetrahydro-2H-pyran-4-ylmethoxy)phenyl]-1,6-dihydro-7H-pyrrolo[2,3-c]pyridin-7-one], the results for the Ki at BRD4 (BDII_E352-M457) and on BRD4 (BDI_K57-E168) were 0.087 µM and 0.021 µM, respectively. Moreover, in test [1], the EC50 turned out to be 0.398 µM.

`Cn1cc(-c2cc(S(C)(=O)=O)ccc2O[C@H]2CC[C@@H](O)CC2)c2cc[nH]c(=O)c21` [Example 33, 3-{2-[(cis-4-hydroxycyclohexyl)oxy]-5-(methylsulfonyl)phenyl}-1-methyl-1,6-dihydro-7H-pyrrolo[2,3-c]pyridin-7-one]: the inhibition constant (Ki) at BRD4 (BDII_E352-M457) is 0.274 µM; at BRD4 (BDI_K57-E168), 0.034 µM. The EC50 in test [1] turned out to be 0.716 µM.
